Literature values as cited in patent publication US20220331279A1, “THERAPEUTIC METHODS AND COMPOSITIONS FOR TREATING CANCER USING 6,8-BIS-BENZYLTHIO-OCTANOIC ACID AND A GLUTAMINASE INHIBITOR” (Rafael Pharmaceuticals, lnc., priority 2019, published 2022).

Settings: after IV dosing; Pardee, T. S. et al., Clin. Cancer Res. 2014, 20, 5255-64

- half-life: 1 to 2 h
SMILES: O=C(O)CCCCC(CCSCc1ccccc1)SCc1ccccc1 (stereo not shown) [6,8-bis-benzylthio-octanoic acid]
